Experimental data taken from patent US11821003B2, “Cardiogenic mesoderm formation regulators” (Sanford Burnham Prebys Medical Discovery Institute, priority 2017, dated 2023).
Entries after “also recorded” stand apart in the source; their conditions may differ.

What was measured:
mESCs = settings: cited from earlier work
[1] = system: cardiomyocytes derived from Id1 overexpressing h9-hESCs; assay: Beat rate of cardiomyocytes measured optically with VF2.1 Cl; assay type: cell-based, human; settings: 100 nM, compared to vehicle
Experimental: FIG. 3F. Schematic of the workflow for the physiological assessment of cardiomyocytes derived from Id1 overexpressing h9-hESCs using the calcium (Fluo-4) and voltage (VF2.1 Cl)(Miller et al., 2012) sensitive dyes.
Next, experiments were performed to determine whether iMP progenitors are bona fide multipotent cardiovascular progenitors and thus able to differentiate into multiple cardiac lineages including functional cardiomyocytes. To address this question, iMPs were first produced in bulk until day 6 of differentiation for mouse, or day 5 for human. At this point, iMPs could be cryopreserved or used fresh. Spontaneous differentiation potential under basal media conditions without cytokines (FIG. 3A) was assessed by RT-qPCR (FIGS. 3B, 3C) and immunostaining (FIG. 3D and FIGS. 9A, 9B) at day 15 of differentiation. […] Although iMPs are multipotent progenitors, the vast majority of the cells (˜70%) spontaneously differentiate into ACTC1^+ cardiomyocytes in hESCs (FIG. 3E). Next, we assessed whether resulting ACTC1^+ cells show characteristics of functional cardiomyocytes, which include the ability to contract, display intracellular calcium oscillations and action potentials, and respond to hormonal stimuli (Birket et al., 2015; Burridge et al., 2014).

| Structure (SMILES) | Id1 transcripts (mESCs) | beat rate [1] |
| --- | --- | --- |
| NC(=O)c1ccc(-c2nc(-c3ccc4c(c3)OCO4)c(-c3ccccn3)[nH]2)cc1 [SB431542] | upregulate Id1 transcripts |  |
| CC(C)NCC(O)c1ccc(O)c(O)c1 (centres unmarked) [isoproterenol] |  | increased beat rate; also recorded: increase in beating frequency |
